{"source": "patent US20110293745A1", "about": "“AURORA KINASE INHIBITORS” (SUNESIS PHARMACEUTICALS, INC., priority 2008, published 2011)", "key": {"[1]": {"assay": "Distribution of compound in tumor and plasma, HCT 116 xenograft mice", "assay_type": "in vivo, mouse", "settings": "for half-life: female, nu/nu athymic, mouse, ip, 170 mg/kg", "method": "The studies in Examples 20, 21, and 22 used female mice nu/nu athymic mice. Compound 1 was formulated fresh each week for dosing. […] HCT 116 colorectal carcinoma cells were implanted in the animals' right hind flanks subcutaneously with 200 μL of a 2.5×10^7 cells/mL suspension [1:1 Dulbecco's PBS (DPBS) with cells:Matrigel™. […] Dosing schedules are provided separately for each of the studies in Examples 28, 29, and 30. […] Terminal blood and tumor samples were harvested between 15 min and 96 hr. Female nu/nu athymic mice received HCT 116 colorectal cancer cell suspension (1:1 DPBS with cells:Matrigel) as a subcutaneous injection in the right hind flank. […] For HPLC-MS/MS, the detector consisted of an API4000 (Sciex/ABI, Foster City, Calif.) triple quadrapole mass spectrometer using turbo electrospray ionization."}, "[2]": {"assay": "Pharmacokinetics, single bolus intravenous injection", "assay_type": "in vivo, CD-1 mice", "settings": "CD-1, mouse, plasma, 5 mg/kg", "from_the_text": "Pharmacokinetic parameters were estimated using noncompartmental analysis within WinNonlin v. 4.1. Quantification of Compound 2 was done by HPLC-MS/MS after extraction from plasma with acetonitrile. […] For rising dose experiments measuring exposure for each species, sets containing several animals were singly dosed at a given dose. Results from single-dose experiments are shown in FIG. 10A, Table 43, and in FIG. 10B and Table 44, respectively. […] C0 is initial concentration extrapolated to time zero. AUCINF is area under the plasma-concentration time curve from time zero extrapolated to the infinite time. CL is clearance; Vss is steady state volume of distribution. T1/2 is half-life."}, "[3]": {"assay": "Clinical pharmacokinetic evaluation, 3-hour infusion", "assay_type": "in vivo, human", "method": "Pharmacokinetic (PK) evaluation was performed on Days 1 and 15."}, "[4]": {"test_system": "pHH3 in HCT 116 xenograft tumor", "assay": "Plasma concentration versus pHH3 in tumor (Western blot, ELISA, HPLC-MS/MS)", "assay_type": "in vivo, mouse", "description": "When tumors reached an average volume of 400 mm^3, mice were sorted into randomized groups of 3 per time point. […] Tumor samples were frozen on liquid nitrogen, and ground into a fine powder. Lysis buffer containing phosphatase inhibitors was added to the tumor powder before homogenization and a snap freeze cycle. The cellular debris was removed by centrifugation, and the protein concentration was measured using the BioRad DC Protein Assay. […] Protein was transferred to PVDF membrane at a constant 30 V for 1 hr using the Invitrogen XCell II Blot Module transfer system and, upon completion, the membranes were incubated with 5% milk in TBST (Tris-buffered saline with Tween) at room temperature for 1 hr. […] Membranes were washed with TBST, and antibodies were detected with ECL Plus chemiluminescent detection system (Amersham), followed by exposure to Kodak BioMax film.\nFilms were visually assessed for total histone H3 (HH3) and histone H3 phosphorylation (pHH3). Total HH3 levels served as loading controls.\nPhospho-histone H3 levels were determined using a commercial ELISA kit from (# KHO0671, Biosource/Invitrogen). The conditions were as described by the manufacturer with 100 μg total proteins from tumor lysates prepared as described in this Example.\nPreparation of Plasma Samples. […]"}, "Flt4": {"target": "T1, Flt4 (Homo sapiens, UniProt P35916)", "T1 construct": "purchased Upstate Biotechnology, Dundee, UK", "T1 sequence (P35916 25-1363)": "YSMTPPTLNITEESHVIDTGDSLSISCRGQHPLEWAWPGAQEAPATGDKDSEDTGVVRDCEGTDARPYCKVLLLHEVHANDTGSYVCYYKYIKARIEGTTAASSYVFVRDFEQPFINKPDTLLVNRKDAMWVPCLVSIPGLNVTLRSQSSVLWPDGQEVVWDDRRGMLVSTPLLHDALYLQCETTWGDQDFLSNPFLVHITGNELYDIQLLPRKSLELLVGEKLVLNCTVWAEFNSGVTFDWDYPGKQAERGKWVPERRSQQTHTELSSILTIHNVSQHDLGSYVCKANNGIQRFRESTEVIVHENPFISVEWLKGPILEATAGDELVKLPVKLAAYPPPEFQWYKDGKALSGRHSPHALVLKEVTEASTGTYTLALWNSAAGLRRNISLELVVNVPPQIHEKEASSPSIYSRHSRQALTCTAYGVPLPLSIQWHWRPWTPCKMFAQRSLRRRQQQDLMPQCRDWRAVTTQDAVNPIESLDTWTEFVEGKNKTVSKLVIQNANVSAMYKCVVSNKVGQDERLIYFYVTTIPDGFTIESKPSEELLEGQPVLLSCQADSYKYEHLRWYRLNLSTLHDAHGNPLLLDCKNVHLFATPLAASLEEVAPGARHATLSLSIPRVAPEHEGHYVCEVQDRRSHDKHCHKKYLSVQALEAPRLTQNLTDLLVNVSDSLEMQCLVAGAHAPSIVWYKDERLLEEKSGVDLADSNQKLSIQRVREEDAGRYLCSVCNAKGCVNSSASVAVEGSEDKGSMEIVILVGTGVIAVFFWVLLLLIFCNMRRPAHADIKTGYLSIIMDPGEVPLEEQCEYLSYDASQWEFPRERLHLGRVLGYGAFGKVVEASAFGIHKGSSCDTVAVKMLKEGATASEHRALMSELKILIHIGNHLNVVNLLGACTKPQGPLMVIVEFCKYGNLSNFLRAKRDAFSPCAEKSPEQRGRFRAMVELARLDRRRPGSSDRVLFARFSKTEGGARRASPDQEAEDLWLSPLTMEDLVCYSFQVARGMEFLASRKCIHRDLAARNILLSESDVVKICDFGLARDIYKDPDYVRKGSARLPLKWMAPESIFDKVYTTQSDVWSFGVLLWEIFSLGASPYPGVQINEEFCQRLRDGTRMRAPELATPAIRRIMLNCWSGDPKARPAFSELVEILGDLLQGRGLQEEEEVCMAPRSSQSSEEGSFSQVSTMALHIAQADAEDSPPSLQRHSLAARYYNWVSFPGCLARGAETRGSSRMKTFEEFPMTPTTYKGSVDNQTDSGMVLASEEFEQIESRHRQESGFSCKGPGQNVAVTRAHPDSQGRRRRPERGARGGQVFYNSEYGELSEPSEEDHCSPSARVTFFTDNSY", "assay": "Radiometric kinase assay (Upstate panel)", "assay_type": "biochemical"}, "c-Raf": {"target": "T2, c-Raf (Homo sapiens, UniProt P04049)", "T2 construct": "purchased Upstate Biotechnology, Dundee, UK", "T2 sequence (P04049 whole entry)": "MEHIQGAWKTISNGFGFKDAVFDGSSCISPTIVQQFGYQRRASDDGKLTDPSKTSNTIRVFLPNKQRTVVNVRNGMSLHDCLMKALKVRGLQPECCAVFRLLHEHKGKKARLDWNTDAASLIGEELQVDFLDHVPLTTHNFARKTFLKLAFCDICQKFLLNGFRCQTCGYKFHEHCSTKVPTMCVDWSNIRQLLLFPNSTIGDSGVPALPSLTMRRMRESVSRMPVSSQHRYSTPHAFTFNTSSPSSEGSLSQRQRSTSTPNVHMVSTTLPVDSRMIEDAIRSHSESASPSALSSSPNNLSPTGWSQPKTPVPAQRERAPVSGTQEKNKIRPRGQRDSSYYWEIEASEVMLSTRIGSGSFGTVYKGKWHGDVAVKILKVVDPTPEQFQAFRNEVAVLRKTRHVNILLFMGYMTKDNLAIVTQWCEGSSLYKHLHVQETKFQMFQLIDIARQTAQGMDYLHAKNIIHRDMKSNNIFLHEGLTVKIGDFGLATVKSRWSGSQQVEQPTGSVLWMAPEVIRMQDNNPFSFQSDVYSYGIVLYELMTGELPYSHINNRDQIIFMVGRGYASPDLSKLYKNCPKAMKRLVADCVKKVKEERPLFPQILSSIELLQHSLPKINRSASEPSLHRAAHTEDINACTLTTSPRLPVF", "assay": "Radiometric kinase assay (Upstate panel)", "assay_type": "biochemical"}, "[5]": {"test_system": "MDA-MB-231 breast cancer xenograft", "assay": "In vivo efficacy, mouse xenograft", "method": "(§1) Percent TGI is then calculated with the following equation: […]\n(§2) Time To Endpoint (TTE) was calculated for each individual animal to reach the predetermined study end point where the tumor volume becomes 1200 mm^3 or 10% of body weight or a greater than 20% body weight loss for two sequential measurements. The TTE is calculated and the median value is recorded for the group. Tumor Growth Delay (TGD) is then calculated with the following equation: […]\nMDA-MB-231 breast cancer cells [200 μL of a 2.5×10^7 cells/mL suspension (1:1 DPBS with cells:Matrigel)] were implanted subcutaneously in the right hind flank of mice. After 13 days, when tumors reached n average volume of approximately 95 mm^3, animals were weighed, randomized by tumor volume (l×w×h×0.52), and assigned to the various study groups before initial dosing."}, "[6]": {"test_system": "H1299 non-small cell lung cancer xenograft", "assay": "In vivo efficacy, mouse xenograft", "settings": "H1299 (NSCLC)", "method": "as §1, §2\nH1299 non-small cell lung cancer cells [200 μL of a 5×10^7 cells/mL suspension (1:1 DPBS with cells:Matrigel)] were implanted subcutaneously in the right hind flank. After 10 days, when tumors reached an average volume of approximately 100 mm^3, animals were weighed, randomized by tumor volume (l×w×h×0.52), and assigned to the various study groups before initial dosing."}, "[7]": {"test_system": "Calu 6 lung carcinoma xenograft", "assay": "In vivo efficacy, mouse xenograft", "settings": "CALU6 (NSCLC)", "method": "as §1, §2\nCalu 6 lung carcinoma cells [200 μL of a 5×10^7 cells/ml suspension (1:1 DPBS with cells:Matrigel)] were implanted subcutaneously in the right hind flank of mice. After 11 days, when tumors reached an average volume of approximately 150 mm^3, animals were weighed, randomized by tumor volume (l×w×h×0.52), and assigned to the various study groups before initial dosing."}, "[8]": {"test_system": "histone H3 phosphorylation in skin biopsies", "assay": "Clinical pharmacodynamics, skin punch biopsies", "assay_type": "in vivo, human", "settings": "Cycle 1, Day 1, 3-7 hours after start of infusion", "method": "Clinical pharmacodynamic assessments were performed as follows. Skin punch biopsy samples were collected prior to (e.g., just prior to or up to 14 days prior to) treatment and during Cycle 1, Day 1 of treatment at between 3 and 7 hours after the start of the 3-hour infusion. Skin punch biopsy samples were analyzed for inhibition of histone H3 phosphorylation."}, "[9]": {"test_system": "cleaved PARP in HCT 116 xenograft tumors", "assay": "PARP cleavage in tumor lysates (western blotting)", "assay_type": "in vivo, mouse", "settings": "single IP dose 170 mg/kg", "method": "(§3) PARP cleavage was measured in HCT 116 (colon carcinoma) and MV-4-11 tumor lysates by western blotting. […] HCT 116 tumors were collected 3, 6 and 12 hrs post dosing; MV-4-11 tumors were collected at 2, 6 and 24 hrs post dosing. […] Tumors were lysed in cell extraction buffer (Biosource # FNN0011) containing protease inhibitors (Sigma # P2714), and PMSF Phenylmethanesulfonyl fluoride (PMSF) [#P7626, Sigma]. Forty micrograms of protein for each sample was loaded and run on 4-12% Tris-Glycine NuPAGE gel (Invitrogen), in Novex Tris-Glycine running buffer (Invitrogen). After gel separation, proteins were electro-transferred to a PVDF membrane (Invitrogen)."}, "[10]": {"test_system": "cleaved PARP in MV-4-11 xenograft tumors", "assay": "PARP cleavage in tumor lysates (western blotting)", "assay_type": "in vivo, mouse", "settings": "single IP dose 50 mg/kg or 100 mg/kg; 2, 6, 24 hrs", "method": "as §3"}, "[11]": {"test_system": "HCT 116 colon cancer xenograft", "assay": "In vivo efficacy, mouse xenograft"}}}
{"smiles": "O=C(Nc1cccc(Cl)c1)Nc1ncc(CCNc2ncnc3ccsc23)s1", "note": "[Compound 2, 1-(3-chlorophenyl)-3-{5-[2-(thieno[3,2-d]pyrimidin-4-ylamino)ethyl]thiazol-2-yl}-urea]", "values": [{"measurement": "half-life", "setting": "[1]; plasma, read-out: half-life in plasma (converted)", "value": 4.7, "unit": "h"}, {"measurement": "half-life", "setting": "[1]; tumor, read-out: half-life in tumor (converted)", "value": 7.5, "unit": "h"}, {"measurement": "AUC(0-inf)", "setting": "[2]", "value": 1800, "unit": "ng·h/mL"}, {"measurement": "C0", "setting": "[2]", "value": 7100, "unit": "ng/mL"}, {"measurement": "clearance", "setting": "[2]", "value": 47.6, "unit": "mL/min/kg"}, {"measurement": "half-life", "setting": "[2]", "value": 1.4, "unit": "h"}, {"measurement": "Vd", "setting": "[2]; read-out: Vss", "value": 1, "unit": "L/kg"}, {"measurement": "disposition following repeated administration", "setting": "[3]; first versus third weekly dose", "value": "no change in Compound 2 disposition"}, {"measurement": "half-life", "setting": "[3]; human, plasma, intravenous, patients, weekly 3-hour infusion, Days 1 and 15, read-out: terminal half-life (converted)", "value": 7, "unit": "h"}, {"measurement": "clearance", "setting": "[3]; patients", "value": "moderate to low"}, {"measurement": "plasma concentration that produced maximal inhibition of phosphorylation of Histone H3 in tumor", "setting": "[4]; 1 hr postdose, HCT 116 xenograft mice, FIG. 43B", "value": 5, "unit": "µM"}]}
{"smiles": "CS(=O)(=O)O.O=C(Nc1cccc(Cl)c1)Nc1ncc(CCNc2ncnc3ccsc23)s1", "note": "[Compound 1, 1-(3-chlorophenyl)-3-{5-[2-(thieno[3,2-d]pyrimidin-4-ylamino)ethyl]thiazo}-urea]", "values": [{"measurement": "IC50", "setting": "Flt4", "value": 0.014, "unit": "µM"}, {"measurement": "IC50", "setting": "c-Raf", "value": 0.1, "unit": "µM"}, {"measurement": "time measurable drug levels are sustained in the HCT 116 tumor", "setting": "[1]; post-dose", "value": "more than 96 hours"}, {"measurement": "% TGI", "setting": "[5]; 42.5 mg/kg biw × 3", "value": 20.6, "unit": "%"}, {"measurement": "TGD", "setting": "[5]; 42.5 mg/kg biw × 3", "value": 3.5, "unit": "days"}, {"measurement": "% TGI", "setting": "[5]; 85 mg/kg biw × 3", "value": 19.2, "unit": "%"}, {"measurement": "TGD", "setting": "[5]; 85 mg/kg biw × 3", "value": 4.0, "unit": "days"}, {"measurement": "% TGI", "setting": "[5]; 170 mg/kg biw × 3", "value": 73.8, "unit": "%"}, {"measurement": "TGD", "setting": "[5]; 170 mg/kg biw × 3", "value": 14.1, "unit": "days"}, {"measurement": "% TGI", "setting": "[6]; 42.5 mg/kg biw × 3", "value": 0, "unit": "%"}, {"measurement": "TGD", "setting": "[6]; 42.5 mg/kg biw × 3", "value": 0, "unit": "days"}, {"measurement": "% TGI", "setting": "[6]; 85 mg/kg biw × 3", "value": 17.7, "unit": "%"}, {"measurement": "TGD", "setting": "[6]; 85 mg/kg biw × 3", "value": 0, "unit": "days"}, {"measurement": "% TGI", "setting": "[6]; 170 mg/kg biw × 3", "value": 69.1, "unit": "%"}, {"measurement": "TGD", "setting": "[6]; 170 mg/kg biw × 3", "value": 5.7, "unit": "days"}, {"measurement": "% TGI", "setting": "[7]; 42.5 mg/kg biw × 3", "value": 23.5, "unit": "%"}, {"measurement": "% TGI", "setting": "[7]; 85 mg/kg biw × 3", "value": 28.7, "unit": "%"}, {"measurement": "% TGI", "setting": "[7]; 170 mg/kg biw × 3", "value": 91.4, "unit": "%"}, {"measurement": "doses at which inhibition of pHH3 was observed in skin biopsies of patients", "setting": "[8]", "value": "≥ 240", "unit": "mg/m^2"}, {"measurement": "time maximal inhibition of phospho-histone H3 in tumor was maintained", "setting": "[4]; single dose of 170 mg/kg IP", "value": "up to 24 hours"}, {"measurement": "time after dose PARP cleavage is maintained", "setting": "[9]", "value": "at least 12 hr"}, {"measurement": "time after dose at which PARP cleavage became evident", "setting": "[9]", "value": 3, "unit": "h"}, {"measurement": "PARP cleavage", "setting": "[10]", "value": "dose- and time-dependent"}, {"measurement": "% TGI (Day 36)", "setting": "[11]; 100 mg/kg, qd × 5, 9 d off × 2", "value": 91.6, "unit": "%"}, {"measurement": "% TGI (Day 36)", "setting": "[11]; 125 mg/kg, Qw × 3", "value": 79.8, "unit": "%"}, {"measurement": "% TGI (Day 36)", "setting": "[11]; 150 mg/kg, biw × 3", "value": 95.6, "unit": "%"}]}
